According to patent US20070275382A1, “Biomarkers for the Efficacy of Somatostatin Analogue Treatment” (priority 2003, published 2007):
*1 amine or outer side, *2 acyl side, *3 side chain or, on linkers, in order; H or OH if unused. Where a SMILES comes first, the peptide text is derived from it. Side-chain parts run from the residue outwards. [ ]: non-standard residue; d: D form. The star is where a group is joined. Ethylenediamine = C(CN[*:2])N[*:1]; Hyp = O=C(O)[CH]1C[CH](O)CN1; Phg = N[CH](C(=O)O)c1ccccc1; CO = O=C([*:1])[*:2]; Bn = c1ccc(C*)cc1

Test system: Pituitary gland
Test: Microarray gene expression profiling (HG-U95A), pituitary
Assay type: in vivo, cynomolgus monkeys
Conditions: 100 μg/animal/day s.c., 14 days
Description: Origin of tissue and processing. Male and female cynomolgus monkeys received subcutaneously pasireotide (100 μg/animal/day) or the vehicle for 14 days. On day 15, all animals were sacrificed and tissues for RNA extraction were immediately snap-frozen and kept at −80° C. until processing.
RNA expression profiling was conducted by means of the HG-U95A gene expression probe array (Affymetrix; Santa Clara, Calif. USA), containing more than 12,600 probe sets interrogating primarily full-length human genes and also some control probe sets. The experiment was conducted according to the recommendations of the manufacturer. Briefly, total RNA was obtained by acid guanidinium thiocyanate-phenol-chloroform extraction (Trizol®, Invitrogen Life Technologies, San Diego, Calif. USA) from each frozen tissue section. The total RNA was then purified on an affinity resin (Rneasy®, Qiagen) and quantified. Double stranded cDNA was synthesized with a starting amount of approximately 5 μg full-length total RNA using the Superscript® Choice System (Invitrogen Life Technologies, Carlsbad, Calif. USA) in the presence of a T7-(dT)24 DNA oligonucleotide primer. Following synthesis, the cDNA was purified by phenol/chloroform/isoamyl alcohol extraction and ethanol precipitation. The purified cDNA was then transcribed in vitro using the BioArray® High Yield RNA Transcript Labeling Kit (ENZO, Farmingdale, N.Y. USA) in the presence of biotinylated ribonucleotides form biotin labelled cRNA. The labelled cRNA was then purified on an affinity resin (Rneasy®, Qiagen), quantified and fragmented. An amount of approximately 10 μg labelled cRNA was hybridized for 16 hours at 45° C. to an expression probe array. The array was then washed and stained twice with streptavidin-phycoerythrin (Molecular Probes,) using the GeneChip® Fluidics Workstation 400 (Affymetrix, Santa Clara, Calif. USA). The array was then scanned twice using a confocal laser scanner (GeneArray® Scanner, Agilent, Palo Alto, Calif. USA) resulting in one scanned image. This resulting “.dat-file” was processed using the MAS4 program (Affymetrix) into a “.cel-file”. The “.cel file” was captured and loaded into the Affymetrix GeneChip® Laboratory Information Management System (LIMS). The LIMS database is connected to a UNIX Sun Solaris server through a network filing system that allows for the average intensities for all probes cells (CEL file) to be downloaded into an Oracle database (NPGN). Raw data was converted to expression levels using a “target intensity” of 150. The data were evaluated for quality control and loaded in the GeneSpring® software 4.2.4 (Silicon Genetics, Calif. USA) for analysis.
On the human Affymetrix HGU95Av2 chip, probe sets for individual genes contain 20 oligonucleotide pairs, each composed of a “perfect match” 25-mer and a “mismatch” 25-mer differing from the “perfect” match oligonucleotide at a single base. After probe labelling, hybridization, and laser scanning, the expression level was estimated by averaging the differences in signal intensity measured by oligonucleotide pairs of a given probe (AvgDiff value). The fold changes and directions were calculated for selected genes, from the differences of the AvgDiff values between controls and treated.
To identify genes that were impacted by pasireotide, the dataset was initially filtered to exclude in a first wave of analysis, genes whose values were systematically in the lower expression ranges where the experimental noise is high (at least 80 in a number of experiments corresponding to the smallest number of replicas of any experimental point). In a second round of selection a threshold p-value of 0.05 (based on a t-test) identified differences between treated and control based on a two component error model (Global Error Model) and, whenever possible, with a stepdown correction for multi-hypothesis testing (Benjamini and Hochberg false discovery rate). […]

`NCCCCC1NC(=O)C(Cc2c[nH]c3ccccc23)NC(=O)C(c2ccccc2)NC(=O)C2CC(OC(=O)NCCN)CN2C(=O)C(Cc2ccccc2)NC(=O)C(Cc2ccc(OCc3ccccc3)cc2)NC1=O` (stereo not drawn) [Pasireotide, cyclo[4-(NH2—C2H4—NH—CO—O)Pro-Phg-DTrp-Lys-Tyr(4-Bzl)-Phe]] (cyclo(F[Hyp]([CO-Ethylenediamine])[Phg]WKY(Bn)); configuration not given here) was tested, and the “GFR bound protein 10 transcript fold change” value (↑ vs control) was “↑ x1.5”, the “GLUR 2, precursor transcript fold change” value (↑ vs control) was “↑ x1.5” and the “GTP-binding protein 11 transcript fold change” value (↑ vs control) was 11 ↑ x2.5. For the same compound, the “Glucagon receptor transcript fold change” value (↑ vs control) was “↑ x7”, the “IFN stimulated gene transcript fold change” value (↑ vs control) was “↑ x3.5” and the “IFNγ-inducible protein 30 (IP30) transcript fold change” value (↑ vs control) was 30 (IP30) ↑ x1.5. For the same compound, the “IGFBP, acid labile subunit transcript fold change” value (↑ vs control) was “subunit ↑ x3.5”, the “IP3 receptor, type 1 transcript fold change” value (↑ vs control) was “↑ x1.5” and the “JAK 1 transcript fold change” value (↑ vs control) was “JAK 1 ↑ x2”. The “MAPKKK5 transcript fold change” value (↑ vs control) was “MAPKKK5 ↑ x2”, the “Neuroblastoma-amplified protein transcript fold change” value (↑ vs control) was “↑ x1.5” and the “PKC inhibitor transcript fold change” value (↑ vs control) was “PKC inhibitor ↑ x2”. For the same compound, the “PP 1, regulatory (inhibitor) subunit 5 transcript fold change” value (↑ vs control) was “↑ x3.5”, the “PTP, receptor type, T transcript fold change” value (↑ vs control) was “↑ x2” and the “Programmed cell death 6 transcript fold change” value (↑ vs control) was “death 6 ↑ x1.5”. For the same compound, the “Putative Ca++ transporting ATPase transcript fold change” value (↑ vs control) was “↑ x2”, the “RAB 5C, member RAS oncogene family transcript fold change” value (↑ vs control) was “↑ x3” and the “Rab geranyltransferase, β subunit transcript fold change” value (↑ vs control) was “β subunit ↑ x2”. The “Receptor (calcitonin) activity modifying protein 2 precursor transcript fold change” value (↑ vs control) was “x3.5”, the “Receptor tyrosine kinase-like orphan receptor 2 transcript fold change” value (↑ vs control) was “receptor 2 ↑ x2” and the “Regulator of G-protein signalling 9 transcript fold change” value (↑ vs control) was “↑ x2”. The “S-phase response (cyclin-related) transcript fold change” value (↑ vs control) was “(cyclin-related) ↑ x2”, the “SSTR3 transcript fold change” value (↑ vs control) was “SSTR3 ↑ x3” and the “Thyroid transcription factor 1 transcript fold change” value (↑ vs control) was “factor 1 ↑ x2.5”. For the same compound, the “VEGF B transcript fold change” value (↑ vs control) was “VEGF B ↑ x1.5”, the “1-PI-4-phosphate 5-kinase isoform C transcript fold change” value (↓ vs control) was “kinase isoform C ↓ x1.5” and the “ATPase, H+/K+ exchanging, α polypeptide transcript fold change” value (↓ vs control) was “polypeptide ↓ x5”. The “Arg PTK-binding protein transcript fold change” value (↓ vs control) was “protein ↓ x2.5”, the “CD36 antigen transcript fold change” value (↓ vs control) was “CD36 antigen ↓ x2” and the “Catenin (cadherin-associated protein), α 1 (102 kD) transcript fold change” value (↓ vs control) was “α 1 (102 kD) ↓ x1.5”. For the same compound, the “Cholecystokinin receptor transcript fold change” value (↓ vs control) was “receptor ↓ x4.5”, the “Cholinergic receptor, muscarinic 3 transcript fold change” value (↓ vs control) was “muscarinic 3 ↓ x3” and the “Cholinergic receptor, nicotinic, β polypeptide 4 transcript fold change” value (↓ vs control) was 4 ↓ x2. The “Cyclin F transcript fold change” value (↓ vs control) was “Cyclin F ↓ x2”, the “Dual specificity phosphatase 8 transcript fold change” value (↓ vs control) was “phosphatase 8 ↓ x3” and the “EGFRBP 2 transcript fold change” value (↓ vs control) was “EGFRBP 2 ↓ x1.5”. For the same compound, the “FGFR 2 transcript fold change” value (↓ vs control) was “FGFR 2 ↓ x2”, the “Fms-related tyrosine kinase 1 (VEGF/vascular permeability factor receptor) transcript fold change” value (↓ vs control) was “receptor) ↓ x1.5” and the “Forkhead box O3A transcript fold change” value (↓ vs control) was “↓ x1.5”. For the same compound, the “G-protein coupled receptor 49 transcript fold change” value (↓ vs control) was “receptor 49 ↓ x2”, the “GTP-binding protein (G protein), q polypeptide transcript fold change” value (↓ vs control) was “↓ x2.5” and the “GTP-binding protein like-1 transcript fold change” value (↓ vs control) was “like-1 ↓ x3”. The “Gastrin receptor transcript fold change” value (↓ vs control) was “Gastrin receptor ↓ x2”, the “IFNR2 (α, β and ω) transcript fold change” value (↓ vs control) was “↓ x2.5” and the “IGF-2 transcript fold change” value (↓ vs control) was “IGF-2 ↓ x1.5”. The “IP-4-phosphatase, type 1, isoform b transcript fold change” value (↓ vs control) was “type 1, isoform b ↓ x2”, the “K+ channel, subfamily K, member 3 (TASK) transcript fold change” value (↓ vs control) was “↓ x4” and the “K+ voltage-gated channel, Shab-related subfamily, member 1 transcript fold change” value (↓ vs control) was “↓ x2”. The “PDGFβ transcript fold change” value (↓ vs control) was “PDGFβ ↓ x2”, the “PI transfer protein, β transcript fold change” value (↓ vs control) was “↓ x2.5” and the “PI-3-kinase, catalytic, α polypeptide transcript fold change” value (↓ vs control) was “α polypeptide ↓ x3”. The “PI-3-kinase, catalytic, δ polypeptide transcript fold change” value (↓ vs control) was “↓ x2”, the “PLCγ 1 transcript fold change” value (↓ vs control) was “PLCγ 1 ↓ x1.5” and the “Phosphatase and tensin homolog (mutated in multiple advanced cancers 1) transcript fold change” value (↓ vs control) was “↓ x3.5”. For the same compound, the “Rab3 GTPase-activating protein, non catalytic subunit transcript fold change” value (↓ vs control) was “catalytic subunit ↓ x2”, the “Rab geranylgeranyl transferase, α subunit transcript fold change” value (↓ vs control) was “↓ x1.5” and the “SHB adaptor protein (a Src homology 2 protein) transcript fold change” value (↓ vs control) was “↓ x2.5”. For the same compound, the “STAT 1, 91kδ transcript fold change” value (↓ vs control) was “STAT 1, 91kδ ↓ x2”, the “Soluble adenylyl cyclase transcript fold change” value (↓ vs control) was “cyclase ↓ x2” and the “TNFR subfamily, member 14; herpesvirus entry mediator transcript fold change” value (↓ vs control) was “entry mediator ↓ x2.5”. The “TNFR-associated factor 2 transcript fold change” value (↓ vs control) was “factor 2 ↓ x4” and the “Thrombospondin-p50 transcript fold change” value (↓ vs control) was “↓ x2”.
